This is an account of results in publication PMC12295124, “Quercetin, Catechin, and Diosmin as Modulators of Haloperidol–HSA Interactions: A Biophysical and Computational Study” (International Journal of Molecular Sciences, 2025).

The target of this assay is T1, human serum albumin (Homo sapiens, UniProt P02768).
T1 construct: gene ALB
Nature of the assay: intrinsic Trp fluorescence quenching (excitation […] nm, […] K), double-log plot; Kb is an association constant. The assay is classed as binding. The note with it: read-out: Kb/dm^3 mol^-1 (converted).

T1 sequence (P02768 25-609): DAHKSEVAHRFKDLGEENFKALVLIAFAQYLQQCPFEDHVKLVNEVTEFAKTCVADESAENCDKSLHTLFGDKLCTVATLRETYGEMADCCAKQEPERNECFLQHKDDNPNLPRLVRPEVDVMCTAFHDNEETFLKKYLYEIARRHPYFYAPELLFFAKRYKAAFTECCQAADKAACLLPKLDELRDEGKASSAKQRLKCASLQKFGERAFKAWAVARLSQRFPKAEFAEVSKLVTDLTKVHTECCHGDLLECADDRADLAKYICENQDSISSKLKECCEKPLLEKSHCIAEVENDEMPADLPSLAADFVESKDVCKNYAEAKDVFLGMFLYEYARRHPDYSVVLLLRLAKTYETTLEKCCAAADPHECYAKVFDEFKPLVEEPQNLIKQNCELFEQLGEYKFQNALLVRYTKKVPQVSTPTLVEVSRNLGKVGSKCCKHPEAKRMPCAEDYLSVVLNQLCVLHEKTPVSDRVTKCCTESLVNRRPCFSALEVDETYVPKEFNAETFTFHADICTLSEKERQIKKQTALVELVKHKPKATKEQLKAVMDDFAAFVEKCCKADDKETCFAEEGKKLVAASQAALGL

Regarding `O=C(CCCN1CCC(O)(c2ccc(Cl)cc2)CC1)c1ccc(F)cc1` [HPD, haloperidol], the Kd was 225 µM.
